Assay results from US11771685B2, “Compounds for the treatment of neurological or mitochondrial diseases” (MUSC FOUNDATION FOR RESEARCH DEVELOPMENT, priority 2018, dated 2023).

Tests used:
Zebrafish larvae = assay: In vivo toxicology in zebrafish larvae; details: for concentration lethal/toxic at 24 hr / overt toxicity observation: 7 dpf larvae; for overt toxicity observation: 5-20 μM, observed 1, 5 and 24 hr
Method: Zebrafish larvae, 7 days post-fertilization (dpf), were exposed to compounds at 20, 15, 10, and 5 μM, six larvae per compound. Animals were observed 1, 5, and 24 hr after dosing for overt toxicity (altered survival, morbidity, morphological deformity). Heart rate, behavior, and startle response were monitored at each time point.
Zebrafish (AB strain) were obtained from the Zebrafish International Resource Center (supported by P40 RR012546 from NIH—NCRR). Zebrafish were maintained and crossed according to standard methods (Westerfield, 2000). Fertilized eggs were collected and placed in E3 embryo medium and positioned in an incubator set at 28.5° C. with a 14/10-hr light/dark cycle (Kimmel et al., 1995). To determine the lethal dose of each compound, 96-well plates containing one zebrafish (7 days post-fertilization, dpf) per well in 100 μL of tank water were used. 100 μL of each compound (0.5-15 μM) was added to each well for 12 animals (one row) for a final volume of 200 μL. One row of larvae was used as dimethyl sulfoxide (DMSO)-only controls. […] All zebrafish studies were approved by the Medical University of South Carolina Institutional Animal Care and Use Committee (#180278) and performed in accordance with the guidelines.
Using a 96-well plate, 7 dpf zebrafish were placed one per well with 100 μL of tank water. 100 μL of each compound was then added to each well for 12 animals (one row) for a final volume of 200 μL. One row of zebrafish larvae was used as DMSO only controls.

HT22 cells = assay: HT22 oxytosis (glutamate-induced cell death) neuroprotection assay; format: cell-based, mouse; details: 10 mM Glu; for EC50: Mus musculus
Method: The HT22 murine hippocampal cell system was chosen as an initial phenotypic screen for neuroprotective efficacy (Andreux et al., 2013; Andreux et al., 2014; Ohlow et al., 2017; Schubert and Maher, 2012). HT22 cells exposed to high extracellular Glu ([…]) undergo oxytosis, a non-apoptotic programmed cell death involving glutathione (GSH) depletion followed by ROS accumulation, oxidative damage, and a cytotoxic signaling cascade (Tan et al., 2001). Glu blocks the −xC cystine antiporter, causing (Tan et al., 2001) cells to accumulate severe oxidative stress, mitochondrial depolarization, disrupted mitochondrial morphology, and Ca^2+ influx (Tan et al., 2001; Yang et al., 2011; Cheng et al., 2013—cellular events that may occur in neurological diseases, including epilepsy. Thus, the immortalized HT22 cell line is a well-established model of neuronal oxidative stress (Sagara and Schubert, 1998; Matsumoto et al., 1996; Albrecht et al., 2010; Ha and Park, 2006; van Leyen et al., 2005; Tobaben et al., 2011), and a verified model of neurodegeneration to screen for potential neuroprotective drugs (Albrecht et al., 2010; van Leyen et al., 2008; Lewerenz et al., 2009; Lewerenz et al., 2003).
Consistent with that work, most of the 2-amino compounds achieved protection of HT22 cells against glutamate-induced oxytosis in the nM to μM range. […] Neuroprotection based on relative cell viability compared to +Glu and −Glu control cells was measured.
The HT22 neuronal cell line is a subclone of HT4, derived from the mouse hippocampus (Morimoto and Koshland, 1990). […] The HT22 cells used in this study were kindly provided by Dr. David Schubert (The Salk Institute for Biological Studies, La Jolla, CA, USA). The cells were grown in Dulbecco's Modified Eagle's Medium (DMEM/high glucose) supplemented with 10% fetal bovine serum (Hyclone) and 5 mL of antibiotic-antimycotic (Amphotericin B, Penicillin, and Streptomycin; Invitrogen) at 37° C. in 5% CO2.
HT-22 cells were seeded onto 96-well plates at 2.5×10^3 cells per well in 75 μL of medium and maintained at 37° C. in 5% CO2 overnight prior to the initiation of experimental treatments. For glutamate toxicity testing, cells were subsequently treated with 25 μL of medium containing glutamate (monosodium glutamate, Sigma, 1 M stock concentration in media, to achieve a final concentration of 10 mM) plus compound (stock in DMSO) and maintained at 37° C. in 5% CO2 for 24 hr. CellTiter-Blue® (resazurin cell viability assay reagent) was then added to each well at a final concentration of 0.125 mg/mL. The mixture was allowed to incubate for 2-4 hr until sufficient color change occurred. Cell viability was measured as a function of resorufin fluorescence intensity using a Tecan M200 Pro spectrophotometer, 560 nm/590 nm (excitation/emission). Cell viability was calculated as a percentage compared with untreated controls. EC50s were determined using GraphPad Prism's “log(inhibitor) vs. normalized response-Variable slope” function. Morphology of HT22 cells following treatments was determined by phase-contrast microscopy.
(§1) Statistical analyses were performed with GraphPad Prism 6 software. For the in vitro HT22 oxytosis assay, dose-response data were fit using GraphPad Prism's log(inhibitor) vs normalized response-variable slope parameters to determine EC50 values and 95% confidence intervals. For the zebrafish locomotive anti-seizure activity data, multiple comparisons were made using a one-way analysis of variance (ANOVA) with a Kruskal-Wallis Test, followed by the Dunn's Method to determine significant differences between all pairs or between control and experimental groups using the Dunn Method for Joint Ranking. Differences were considered statistically significant when p<0.05. Data from zebrafish experiments are represented as scatter dot plots of individual measurements, with means±standard deviation indicated by bars.

[1] = tested on: PTZ-induced seizure activity in zebrafish larvae; assay: Zebrafish PTZ-induced seizure model; format: in vivo; details: Danio rerio; for minimal effective concentration: 7 dpf larvae, 1 hr pre-treatment, 10 mM PTZ, read-out: Anti-seizure activity: lowest tested dose with significant difference vs PTZ-only group
Method: The zebrafish PTZ-induced seizure model was used to determine the most promising compounds' in vivo efficacy. Zebrafish larvae (7 dpf) were treated with the compound for 1 hr prior to inducing seizures with PTZ. As established by previous larval zebrafish anti-seizure studies (Rahn et al., 2014; Hansen et al., 2004; Baraban et al., 2005), total distance traveled by each fish after seizure induction was measured and used as a proxy for seizure activity. Following collection of locomotor data, observation of a startle response and visual inspection for abnormal morphology confirmed that alterations in swim activity were not caused by compound toxicity.
We induced seizures in 7 dpf zebrafish larvae by the addition of […] PTZ as originally developed by Baraban et al., 2005. In a 48-well plate, one 7-dpf zebrafish was added per well. Larvae were dosed with each compound at a sub-lethal dose 1 hr prior to PTZ treatment. Two control rows were included with each experiment—tank water only control and PTZ only. Seizures were induced by adding PTZ to wells to yield a final concentration of 10 mM. After 5 min, the plate was transferred to the Daniovision instrument (Noldus Information Technology) and the chamber light was turned on. After 2 min, MediaRecorder (Noldus) was used to record video for 15 min. A small number of videos were acquired at 25 frames per second, but the majority of data were acquired at 60 frames per second. […] Ethovision XT software (Noldus) was used to track the fish movement from the video images in order to calculate the total distance traveled over 15 min. All experimental comparisons were made between animals from the same clutch.
as §1

[2] = HT-22, 24 h, HT22 cells, 24 hr, 95% CI in parentheses
[3] = read-out: reduction of PTZ-induced locomotor activity

In the case of `CCCCC#CCNC1=CC(=O)c2ccccc2C1=O` [Compound 5, 2-(Hept-2-yn-1-ylamino)naphthalene-1,4-dione], the “concentration lethal/toxic at 24 hr” value (Zebrafish larvae; 24 hr) is reported as 20 µM, the EC50 (HT22 cells; [2]) is reported as 1.57 µM and the minimal effective concentration [1] is reported as at most 5 µM. It also gave an inhibition in vivo at 5 µM ([1]; 5 μM, read-out: reduction of PTZ-induced locomotor activity) of 84% and an inhibition in vivo at 10 µM [1, 3] of 77%.
In the case of `CS(=O)(=O)Nc1cccc(C#CCNC2=CC(=O)c3ccccc3C2=O)c1` [Compound 14, N-(3-(3-((1,4-dioxo-1,4-dihydronaphthalen-2-yl)amino)prop-1-yn-1-yl)phenyl)methanesulfonamide], the “concentration lethal to all fish” value (Zebrafish larvae; after 5 hr) is reported as 10 µM, the EC50 (HT22 cells; [2]) is reported as 1.94 µM and the EC50 (HT22 cells; HT-22, HT22 cells) is reported as about 2 µM.
With `CC#CCNC1=CC(=O)c2ccccc2C1=O` [Compound 2, 2-(But-2-yn-1-ylamino)naphthalene-1,4-dione] the fish dead (Zebrafish larvae; 5 μM, 24 hr) was “⅚”, the “concentration lethal/toxic at 24 hr” value (Zebrafish larvae; 24 hr) was at least 10 µM and the EC50 (HT22 cells; [2]) was 1.22 µM. The minimal effective concentration [1] was over 20 µM and the inhibition in vivo at 40 µM ([1]; 40 μM, read-out: reduction of PTZ-induced locomotor activity) was 89%.
`CN(C)CC#CCNC1=CC(=O)c2ccccc2C1=O` [Compound 7, 2-((4-(Dimethylamino)but-2-yn-1-yl)amino)naphthalene-1,4-dione] was tested, and the overt toxicity observation (Zebrafish larvae) was “lethal at most concentrations” and the “HT22 protection” value (HT22 cells; HT22 cells) was “poor protection”.
For `CCCC#CCNC1=CC(=O)c2ccccc2C1=O` [Compound 4, 2-(Hex-2-yn-1-ylamino)naphthalene-1,4-dione], the fish dead (Zebrafish larvae; 10 μM, 24 hr) was “⅙”, the EC50 (HT22 cells; [2]) was 0.989 µM and the minimal effective concentration [1] was over 20 µM. For the same compound, the inhibition in vivo at 10 µM [1, 3] was about 80% and the inhibition in vivo at 20 µM ([1]; 20 μM, read-out: reduction of PTZ-induced locomotor activity) was about 80%.
For `CC#CCCNC1=CC(=O)c2ccccc2C1=O` [Compound 15, 2-(Pent-3-yn-1-ylamino)naphthalene-1,4-dione], the overt toxicity observation (Zebrafish larvae) was “acutely lethal to most fish at the lowest concentration after 1 hr”, the EC50 (HT22 cells; [2]) was 2.91 µM and the EC50 (HT22 cells; HT-22, HT22 cells) was over 2 µM.
With `C#CC(C)NC1=CC(=O)c2ccccc2C1=O` (racemic) [Compound 19, Rac-2-(but-3-yn-2-ylamino)naphthalene-1,4-dione] the fish dead (Zebrafish larvae; 10 μM, 5 hr) was “⅙”, the toxic concentration (Zebrafish larvae; AB, zebrafish, in vivo, 5 hr) was at least 10 µM and the EC50 (HT22 cells; [2]) was 2.15 µM. It also gave an EC50 (HT22 cells; HT-22, HT22 cells) of about 1.5 µM and a minimal effective concentration [1] of over 10 µM.
With `CCC#CCCNC1=CC(=O)c2ccccc2C1=O` [Compound 16, 2-(Hex-3-yn-1-ylamino)naphthalene-1,4-dione] the overt toxicity observation (Zebrafish larvae) was “acutely lethal to most fish at the lowest concentration after 1 hr”, the EC50 (HT22 cells; [2]) was 5.6 µM and the EC50 (HT22 cells; HT-22, HT22 cells) was over 2 µM.
